Two compounds from patent US20250042925A1, “Improved Compositions and Methods for Targeting Mitochondria in Cancer Cells” (The Medical College of Wisconsin, Inc., priority 2021, published 2025) can be followed below.

Data set [1] relates to KPC1242, Panc-1, AsPC-1, HCT-116, MDA-MB-231, OVCAR-4, OVCAR-8 cancer cell lines. Nature of the data set: Cell growth (IncuCyte confluence) in cancer cell lines. It counts as cell-based, murine, human. Particulars: for cell confluency: increasing concentrations 0.1 μM-10 μM, each of the cancer cells. An excerpt:
(§1) Murine pancreatic cancer cells KPC1242 (David Tuveson, Cold Spring Harbor), human pancreatic cancer cells, Panc-1 (ATCC: CRL-1469), human breast cancer cells MDA-MB-231 (ATCC: CRM-HTB-26), and human pancreatic stellate cells HPSC (Rosa F. Hwang, MD Anderson cancer) were all cultured in DMEM (Gibco ThermoFisher Scientific, Waltham, MA, Cat #11965084) containing 10% v/v fetal bovine serum (Omega Scientific, Inc., Tarzana, CA, Cat #FB-12). Human pancreatic cancer cells AsPC-1 (ATCC: CRL-1682), human ovarian cancer cells OVCAR-8 (NIH: CVCL-1629), and human ovarian cancer cells OVCAR-4 (NIH: CVCL-1627) were all cultured in DMEM (Gibco, Cat #22400089) containing 10% v/v fetal bovine serum (Omega Scientific). Human colon cancer cells HCT-116 (ATCC: CCL-247) were cultured in McCoy's 5A Modified Medium (Gibco, Cat #16600082) containing 10% v/v fetal bovine serum (Omega Scientific). Human pancreatic duct epithelial cells HPNE (ATCC: CRL-4023) were cultured in DMEM and 200 mM L-Glutamine and 7.5% w/v NaCO3 further supplemented with 15% v/v fetal bovine serum, M3-Base A (Incell, San Antonio, TX), 1M D-Glucose (Gibco Cat #J60067.EQE), 100 μg/mL human EGF (Gibco Cat #PHG0313) and 10 mg/mL puromycin (ThermoFisher, Cat #A1113802).

Data set [2] has as its system KPC1242 cells. Nature of the data set: Luminescent ATP detection assay. The format is cell-based, murine. Particulars: 24 hours; 0.7 μM MMe or 3 μM pCF3-MMe. As for the experimental part: The functional consequence of inhibiting mitochondria complex I and subsequently OXPHOS is a reduction of overall ATP levels in the cell. The ability of MMe to reduce ATP levels was previously reported in numerous cancer cell types. Thus, further studies were conducted to explore if pCF3-MMe retained similar properties. […] Cells, including cancer cells, must maintain a high ATP:ADP ratio to maintain cellular functions and survival. Moreover, AMP levels rise whenever the ATP:ADP ratio decreases, and an increase in the AMP:ATP ratio signals an energetic crisis in the cell. This energetic crisis is sensed by the master regulator AMP-Activated Protein Kinase (AMPK), which is activated through Thr172 phosphorylation and controls many signaling pathways ranging from energy metabolism to cellular growth. Therefore, further studies were conducted to evaluate if the reduction in ATP levels induced by MMe or pCF3-MMe is sufficient to activate AMPK.
Intracellular ATP levels were determined in cell lysates using a Luminescent ATP Detection Assay Kit per the manufacturer's directions (Abcam, Cambridge, UK, Cat #ab113849).

Data set [3] deals with HPNE and HPSC non-transformed cells. Description: Cell growth (confluence) of normal non-transformed cells. It counts as cell-based, human. Particulars: for sensitivity of normal non-transformed cells compared to cancer cells: HPNE, HPSC versus cancer cells. Here is the method:
To test the off-target effects of the refined MMe analogs on normal non-transformed cells, the growth of HPNE cells (FIGS. 11A, 11D, and 11G), used as a surrogate for normal pancreatic ductal epithelium, or normal stromal HPSC cells (FIGS. 11B, 11E, and 11H) were measured in increasing concentrations of MMe, pCF3-MMe, or mCF3-MMe and compared to the vehicle control.
as §1

The next data set relates to HPSC cells. Nature of the data set: TMRE retention (mitochondrial depolarization) by flow cytometry in HPSC. Particulars: HPSC cell line, 1 hour treatment. The format is cell-based, human. As for the experimental part:
AsPC-1 and HPSC cells were serum-starved overnight, loaded with tetramethylrhodamine ethyl ester (TMRE), and treated for 1 hour with the indicated concentrations of MMe or pCF3-MMe or, as the vehicle control, DMSO. Mitochondrial TMRE retention was measured by flow cytometry. Representative histograms of n=3 of TMRE fluorescence in AsPC-1 (FIG. 4A) and HPSC (FIG. 4B) in response to treatment. […] Total cellular ATP levels were analyzed using a luminescent ATP detection assay of KPC1242 cells treated with MMe (0.7 μM) or pCF3-MMe (3 μM), and changes in ATP levels were assayed (FIG. 4E). Representatives immunoblot analyses of phosphorylated and total AMPK levels (FIG. 4F) and densitometric quantification (FIG. 4G) in KPC1242 cells treated with MMe (0.7 μM) or pCF3-MMe (3 μM). […] Values are mean±SD from 3 biological replicates. Statistical differences in a, c, and e were determined using Student's t-test (*, p<0.05; **, p<0.01; ***, p<0.001, ns: not significant).
TPP-conjugated compounds are known to effectively target the mitochondria of cancer cells. Thus, the efficacy of pCF3-MMe to effectively target the mitochondria of cancer cells was tested and compared to normal cells using tetramethylrhodamine ethyl ester perchlorate (TMRE), a cell-permeant, positively-charged dye that accumulates in active mitochondria, and is released into the cytosol upon mitochondrial damage. […]

For data set [4], the system named is KPC1242 cells. Nature of the data set: Seahorse Cell Mito Stress Test (oxygen consumption rate). It counts as cell-based, murine. Particulars: 24 hours treatment, increasing concentrations. Here is the method: To determine if the newly synthesized variants retain this functional specificity, further studies were conducted to determine if pCF3-MMe effectively impacts mitochondrial function and/or induces bioenergetic stress. KPC1242 cells were treated for 24 hours with increasing concentrations of MMe or pCF3-MMe, and oxygen consumption rate (OCR) was measured as a surrogate for oxidative phosphorylation linked mitochondrial respiration.
Cells were plated to Seahorse XF96 cell culture microplates at 20,000 cells/well. Stock compounds in DMSO were diluted in RPMI medium to a final concentration in […] volume, incubated at 37° C. for 24 hours, centrifuged at 200×g for 2 minutes, and conditioned medium removed and replaced with serum-free RPMI […]. Oxygen consumption (OCR) and extracellular flux (ECAR) were measured after injections of oligomycin (1 mg/mL), dinitrophenol […], rotenone […], and antimycin A […]. Analysis was performed by normalizing OCR and ECAR readouts to vehicle controls. Complex I and II activity were analyzed after permeabilization of the cells.

In the case of `N=C(N)NC(=N)NCCCCCCCCCC[P+](c1ccccc1)(c1ccccc1)c1ccccc1.[Br-]` [MMe, 10-[(carbamimidamidomethanimidoyl)amino]decyl-triphenylphosphonium bromide, reference compound], the cell confluency result in data set [1] is on record as “decreased in a concentration-dependent manner”. Also, in the data set on KPC1242 cells [2], the “levels of ATP” value is reported as “significantly reduced”. Besides, in data set [3], the “sensitivity of normal non-transformed cells compared to cancer cells” value is “more than a log less sensitive”. In the data set on HPSC cells, the “TMRE accumulation within the mitochondria” value is on record as “did not affect TMRE accumulation”. Also, the “basal OCR, ATP-linked respiration, and maximal respiratory capacity” value in the data set with KPC1242 cells [4] is listed as “concentration-dependent decrease”.
For the compound `N=C(N)NC(=N)NCCCCCCCCCC[P+](c1ccc(C(F)(F)F)cc1)(c1ccc(C(F)(F)F)cc1)c1ccc(C(F)(F)F)cc1.[Br-]` [pCF3-MMe, (10-(3-carbamimidoylguanidino)decyl)tris(4-(trifluoromethyl)phenyl)phosphonium bromide], in data set [1], the “efficacy compared to MMe in several types of cancer” value is recorded as “only a slight change in efficacy” and the cell confluency result was “decreased in a concentration-dependent manner”. Besides, the “levels of ATP” value with KPC1242 cells [2] is “significantly reduced”. In addition, in data set [3], the “reduction in toxicity to normal cells compared to MMe” value is given as approximately 10 fold and the “sensitivity of normal non-transformed cells compared to cancer cells” value is “more than a log less sensitive”. Moreover, the “toxic effects towards non-transformed HPNE and HPSC-1 cells” value in data set [3] (compared to the parent MMe and the mCF3-MMe analog) is “least toxic effects”. Further, the “TMRE accumulation within the mitochondria” value in the data set on HPSC cells is “did not affect TMRE accumulation”. In addition, in the data set with KPC1242 cells [4], the “basal OCR, ATP-linked respiration, and maximal respiratory capacity” value is “concentration-dependent decrease”.
